What was measured:
[1] = test system: Erysiphe [syn. Blumeria] graminis forma specialis. tritici; test: Activity against mildew of wheat (protective spray, wheat seedlings cultivar Kanzler); assay type: in vivo; settings: 7 days, control 77% infestation
Protocol: (§1) The active compounds, separately or together, were formulated as a 10% emulsion in a mixture of 63% by weight of cyclohexanone and 27% by weight of emulsifier, and diluted with water to the desired concentration.
(§2) Evaluation was carried out by determining the infected leaf areas in percent. These percentages were converted into efficacies. The efficacy (W) was calculated as follows using Abbot's formula: [formula] • α corresponds to the fungal infection of the treated plants in % and • β corresponds to the fungal infection of the untreated (control) plants in %
(§3) An efficacy of 0 means that the infection level of the treated plants corresponds to that of the untreated control plants; an efficacy of 100 means that the treated plants were not infected.
(§4) The expected efficacies of the mixtures of the active compounds were determined using Colby's formula [R. S. Colby, Weeds 15, 20-22 (1967)] and compared with the observed efficacies. Colby's formula: E x+y−x•y/100 • E expected efficacy, expressed in % of the untreated control, when using the mixture of the active compounds A and B at the concentrations a and b • x efficacy, expressed in % of the untreated control, when using active compound A at a concentration of a • y efficacy, expressed in % of the untreated control, when using active compound B at a concentration of b.
Leaves of wheat seedlings of the cultivar “Kanzler”, which had been grown in pots, were sprayed to runoff point with an aqueous suspension having the concentration of active compound stated below. The suspension or emulsion was prepared from a stock solution with 10% of active compound in a mixture comprising 85% of cyclohexanone and 5% of emulsifier. 24 hours after the spraycoating had dried on, the plants were dusted with spores of mildew of wheat (Erysiphe [syn. Blumeria] graminis forma specialis. tritici). The test plants were then placed in a greenhouse at 20-24° C. and 60-90% relative atmospheric humidity. After 7 days, the extent of the mildew development was determined visually in % infection of the total leaf area.
The visually determined values for the percentage of diseased leaf areas were converted into efficacies in % of the untreated control. An efficacy of 0 means the same disease level as in the untreated control, an efficacy of 100 means 0% disease. The expected efficacies for combinations of active compounds were determined using the abovementioned Colby formula and compared with the observed efficacies.

Puccinia recondita = test: Curative activity against brown rust of wheat (wheat seedlings cultivar Kanzler); assay type: in vivo; settings: 7 days, control 90% infestation
Protocol: as §1, §2, §3, §4
Leaves of wheat seedlings of the cultivar “Kanzler”, which had been grown in pots, were dusted with spores of brown rust (Puccinia recondita). The pots were then placed in a chamber with high atmospheric humidity (90-95%), at 20-22° C. During this time, the spores germinated and the germinal tubes penetrated into the leaf tissue. The next day, the infected plants were sprayed to runoff point with an aqueous suspension having the concentration of active compound stated below. The suspension or emulsion was prepared from a stock solution with 10% of active compound in a mixture comprising 85% of cyclohexanone and 5% of emulsifier. After the spray coating had dried on, the test plants were cultivated in a greenhouse at 20-22° C. in 65-70% relative atmospheric humidity for 7 days. The extent of the rust fungus development on the leaves was then determined.
The visually determined values for the percentage of diseased leaf areas were converted into efficacies in % of the untreated control. An efficacy of 0 means the same disease level as in the untreated control, an efficacy of 100 means 0% disease. The expected efficacies for active compound combinations were determined using the abovementioned Colby formula and compared with the observed efficacies.

Compound	Efficacy in % of the untreated control ([1]; 0.25 ppm in the spray liquor) [%]	Efficacy in % of the untreated control ([1]; 1 ppm in the spray liquor) [%]	Efficacy in % of the untreated control (Puccinia recondita; 0.25 ppm in the spray liquor) [%]	Efficacy in % of the untreated control (Puccinia recondita; 1 ppm in the spray liquor) [%]	Efficacy in % of the untreated control ([1]; 0.15 ppm in the spray liquor) [%]	Efficacy in % of the untreated control ([1]; 0.6 ppm in the spray liquor) [%]	Efficacy in % of the untreated control (Puccinia recondita; 0.15 ppm in the spray liquor) [%]	Efficacy in % of the untreated control (Puccinia recondita; 0.6 ppm in the spray liquor) [%]	Efficacy in % of the untreated control (Puccinia recondita; 2.5 ppm in the spray liquor) [%]	Efficacy in % of the untreated control ([1]; 2.5 ppm in the spray liquor) [%]
OC(Cc1ccccc1Cl)(Cn1nc[nH]c1=S)C1(Cl)CC1 (stereo not drawn) [Compound I, 2-[2-(1-chlorocyclopropyl)-3-(2-chlorophenyl)-2-hydroxy-propyl]-2,4-dihydro-[1,2,4]-triazole-3-thione]	0	0	22	78						
CC(Cc1ccc(C(C)(C)C)cc1)CN1CCCCC1 (stereo not drawn) [Compound IV, fenpropidin]					0	61	0	0	44	
CCCCCCCCCCCCCN1CC(C)OC(C)C1 (stereo not drawn) [Compound III, tridemorph]					0	0	0	0	0	48
CC(Cc1ccc(C(C)(C)C)cc1)CN1C[C@@H](C)O[C@@H](C)C1 (stereo partly drawn) [Compound II, fenpropimorph]					0	0	0	0	22	74
